Experimental data: US20250230193A1, “CYCLIC COMPOUND HAVING SELECTIVE KRAS INHIBITORY EFFECT ON HRAS AND NRAS” (CHUGAI SEIYAKU KABUSHIKI KAISHA, priority 2022, published 2025)
*1 amine or outer side, *2 acyl side, *3 side chain or, on linkers, in order; H or OH if unused. Where a SMILES comes first, the peptide text is derived from it. Bridges are numbered along the chain shown (N, C = ends). [ ]: non-standard residue; d: D form. The star is where a group is joined. hPhe(3,5-F2-4-CF3) = N[C@@H](CCc1cc(F)c(C(F)(F)F)c(F)c1)C(=O)O; hPhe(3-Cl-4-CF3) = N[C@@H](CCc1ccc(C(F)(F)F)c(Cl)c1)C(=O)O; X31 = O=C([C@H](Cc1ccc(C(F)(F)F)cc1)N(CC1CC1)[*:1])[*:2]; NPrPhe(4-CF3) = CCCN[C@@H](Cc1ccc(C(F)(F)F)cc1)C(=O)O; NEtPhe(4-Me) = CCN[C@@H](Cc1ccc(C)cc1)C(=O)O; NMeGly(cPent) = CN[C@H](C(=O)O)C1CCCC1; NMeD = CN[C@@H](CC(=O)O)C(=O)O; NMeL = CN[C@@H](CC(C)C)C(=O)O; αMeS = C[C@](N)(CO)C(=O)O; Morpholide = C1CN(*)CCO1; NMeA = CN[C@@H](C)C(=O)O; Ac5c = NC1(C(=O)O)CCCC1; Aze = O=C(O)[C@@H]1CCN1; Sar = CNCC(=O)O

Tests used:
[1] = target: GDP-bound HRAS wild-type protein (Homo sapiens, UniProt P01112); assay: Binding to HRAS by surface plasmon resonance (SPR), Single Cycle Kinetics; conditions: SPR; for HRAS/KRAS (ratio of KD value for HRAS to KD value for KRAS) / HRAS/KRAS (ratio of KD value with respect to HRAS to KD value with respect to KRAS): GDP-bound HRAS wild-type vs GDP-bound KRAS wild-type
GDP-bound HRAS wild-type protein, sequence (P01112 whole entry): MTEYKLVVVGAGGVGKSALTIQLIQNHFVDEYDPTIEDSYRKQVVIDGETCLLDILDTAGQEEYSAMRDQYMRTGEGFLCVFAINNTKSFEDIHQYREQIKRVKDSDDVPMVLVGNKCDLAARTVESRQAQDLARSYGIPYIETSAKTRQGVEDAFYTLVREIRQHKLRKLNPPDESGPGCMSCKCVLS

[2] = target: GDP-bound NRAS wild-type protein (Homo sapiens, UniProt P01111); assay: Binding to NRAS by surface plasmon resonance (SPR), Single Cycle Kinetics; conditions: SPR; for NRAS/KRAS (ratio of KD value for NRAS to KD value for KRAS) / NRAS/KRAS (ratio of KD value with respect to NRAS to KD value with respect to KRAS): GDP-bound NRAS wild-type vs GDP-bound KRAS wild-type
GDP-bound NRAS wild-type protein, sequence (P01111 whole entry): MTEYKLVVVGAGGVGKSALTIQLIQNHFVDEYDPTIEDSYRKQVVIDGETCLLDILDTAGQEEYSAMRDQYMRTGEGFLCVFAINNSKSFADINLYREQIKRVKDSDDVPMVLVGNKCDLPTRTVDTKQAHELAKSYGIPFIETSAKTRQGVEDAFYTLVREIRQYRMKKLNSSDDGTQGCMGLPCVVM

CC[C@H](C)[C@@H]1NC(=O)[C@H](CC(C)C)N(C)C(=O)C[C@@H](C(=O)N2CCOCC2)N(C)C(=O)[C@H](CC(C)C)N(C)C(=O)C2(CCCC2)NC(=O)[C@@H]2CCCN2C(=O)[C@H](CCc2ccc(C(F)(F)F)c(Cl)c2)NC(=O)CN(C)C(=O)[C@H](Cc2ccc(C)cc2)N(CC)C(=O)[C@@H]2CCN2C(=O)[C@H](C)N(C)C1=O [PP0016] ([NMeL]I[NMeA][Aze][NEtPhe(4-Me)][Sar][hPhe(3-Cl-4-CF3)]P[Ac5c][NMeL][NMeD]-Morpholide; lactam N-11)
HRAS/KRAS (ratio of KD for GDP-bound HRAS wild-type to KD for KRAS) ([1]; KD ratio HRAS/KRAS): C (A compound having a KD ratio of 0.1 or more and less than 3 is denoted as C) | NRAS/KRAS (ratio of KD for GDP-bound NRAS wild-type to KD for KRAS) ([2]; KD ratio NRAS/KRAS): C (A compound having a KD ratio of 0.1 or more and less than 3 is denoted as C)

CCCN(C)C(=O)[C@@H]1CC(=O)N(C)[C@@H](CC(F)F)C(=O)N[C@@H]([C@@H](C)CC)C(=O)N(C)CC(=O)N(C)[C@H]2C/C=C\CCN(C2=O)[C@@H](Cc2ccc(C(F)(F)F)cc2)C(=O)N(C)CC(=O)N[C@@H](CCc2cc(F)c(C(F)(F)F)c(F)c2)C(=O)N2C[C@@H](C)C[C@H]2C(=O)NC2(CCC2)C(=O)N(C)[C@@H](C2CCCC2)C(=O)N1C [PP2000]
HRAS/KRAS (ratio of KD value for HRAS to KD value for KRAS) ([1]; KD ratio): B (a compound having 3 or more and less than 10 is denoted as B) | NRAS/KRAS (ratio of KD value for NRAS to KD value for KRAS) ([2]; KD ratio): A (a compound having 10 or more and less than 20 is denoted as A)

CCCOC[C@H]1C(=O)N[C@@H]([C@@H](C)CC)C(=O)N2CCC[C@H]2C(=O)N(C)[C@H]2C/C=C\CCN(C2=O)[C@@H](Cc2ccc(C(F)(F)F)cc2)C(=O)N(C)CC(=O)N[C@@H](CCc2ccc(C(F)(F)F)c(OC)c2)C(=O)N2C[C@H](OCC)C[C@H]2C(=O)N(C)C2(CCC2)C(=O)N(C)[C@@H](C2CCCC2)C(=O)N(C)[C@H](C(=O)N(C)C)CC(=O)N1C [PP2322]
HRAS/KRAS (ratio of KD value with respect to HRAS to KD value with respect to KRAS) [1]: B (a compound having 3 or more and less than 10 is denoted as B) | NRAS/KRAS (ratio of KD value with respect to NRAS to KD value with respect to KRAS) [2]: A (a compound having 10 or more and less than 20 is denoted as A)

CC[C@H](C)[C@@H]1NC(=O)[C@H](CC(C)C)N(C)C(=O)C[C@@H](C(=O)N2CCOCC2)N(C)C(=O)[C@H](C2CCCC2)N(C)C(=O)C2(CCCC2)NC(=O)[C@@H]2CCCN2C(=O)[C@H](CCc2ccc(C(F)(F)F)c(Cl)c2)NC(=O)CN(C)C(=O)[C@H](Cc2ccc(C(F)(F)F)cc2)N(CC2CC2)C(=O)CN(C)C(=O)CN(C)C1=O [PP0122] ([NMeL]I[Sar][Sar][X31][Sar][hPhe(3-Cl-4-CF3)]P[Ac5c][NMeGly(cPent)][NMeD]-Morpholide; lactam N-11)
HRAS/KRAS (ratio of KD for GDP-bound HRAS wild-type to KD for KRAS) ([1]; KD ratio HRAS/KRAS): C (A compound having a KD ratio of 0.1 or more and less than 3 is denoted as C) | NRAS/KRAS (ratio of KD for GDP-bound NRAS wild-type to KD for KRAS) ([2]; KD ratio NRAS/KRAS): C (A compound having a KD ratio of 0.1 or more and less than 3 is denoted as C)

CCO[C@@H]1C[C@H]2C(=O)NC3(CC(F)(F)C3)C(=O)N(C)[C@@H](C(CC)CC)C(=O)N3CCC[C@@H]3CC(=O)N(C)[C@@H](CC3CC3)C(=O)N[C@@H]([C@@H](C)CC)C(=O)N(C)CC(=O)N(C)[C@H]3C/C=C\CCN(C3=O)[C@@H](Cc3ccc(C(F)(F)F)cc3)C(=O)N(C)CC(=O)N[C@@H](CCc3cc(F)c(C(F)(F)F)c(F)c3)C(=O)N2C1 [PP1614]
HRAS/KRAS (ratio of KD value for HRAS to KD value for KRAS) ([1]; KD ratio): A (a compound having 10 or more and less than 20 is denoted as A) | NRAS/KRAS (ratio of KD value for NRAS to KD value for KRAS) ([2]; KD ratio): A (a compound having 10 or more and less than 20 is denoted as A)

CCCN1C(=O)CN(C)C(=O)CN(C)C(=O)[C@H]([C@@H](C)CC)NC(=O)[C@H](CC(C)C)N(C)C(=O)C[C@@H](C(=O)N2CCOCC2)N(C)C(=O)[C@H](C2CCCC2)N(C)C(=O)[C@](C)(COC)NC(=O)[C@@H]2CCCN2C(=O)[C@H](CCc2cc(F)c(C(F)(F)F)c(F)c2)NC(=O)CN(C)C(=O)[C@@H]1Cc1ccc(C(F)(F)F)cc1 [PP0762] ([NMeL]I[Sar][Sar][NPrPhe(4-CF3)][Sar][hPhe(3,5-F2-4-CF3)]P[αMeS](Me)[NMeGly(cPent)][NMeD]-Morpholide; lactam N-11)
HRAS/KRAS (ratio of KD value with respect to GDP-bound HRAS wild-type protein to KD value with respect to KRAS) ([1]; KD ratio HRAS/KRAS): B (a compound having 3 or more and less than 10 is denoted as B) | NRAS/KRAS (ratio of KD value with respect to GDP-bound NRAS wild-type protein to KD value with respect to KRAS) ([2]; KD ratio NRAS/KRAS): B (a compound having 3 or more and less than 10 is denoted as B)

CC[C@H](C)[C@@H]1NC(=O)[C@H](Cc2cccc(F)c2)N(C)C(=O)C[C@@H](C(=O)N2CCOCC2)N(C)C(=O)[C@H](C2CCCC2)N(C)C(=O)C2(CCCC2)NC(=O)[C@@H]2CCCN2C(=O)[C@H](CCc2ccc(C(F)(F)F)c(Cl)c2)NC(=O)CN(C)C(=O)[C@H](Cc2ccc(F)cc2)N2CCCCC[C@@H](C2=O)N(C)C(=O)CN(C)C1=O [PP0962]
HRAS/KRAS (ratio of KD value with respect to HRAS to KD value with respect to KRAS) ([1]; KD ratio): B (a compound having 3 or more and less than 10 is denoted as B) | NRAS/KRAS (ratio of KD value with respect to NRAS to KD value with respect to KRAS) ([2]; KD ratio): B (a compound having 3 or more and less than 10 is denoted as B)
